Data from PMC6199744, “Development of Chemical Proteomics for the Folateome and Analysis of the Kinetoplastid Folateome” (ACS Infectious Diseases, 2018).

Tested on: L. major lysate proteins
Assay: Multitargeted bead mixture chemoproteomics, single concentration competition, proteome-wide
Type: binding
Settings: for fold change: vehicle control = 1

## Nc1nc2[nH]cc(CCc3ccc(C(=O)N[C@@H](CCC(=O)O)C(=O)O)cc3)c2c(=O)[nH]1 [PTX, pemetrexed]
Protein LMJF.28.0110 […] 3 SUBUNIT, PUTATIVE
  fold change vs vehicle control: 0.95
Protein LMJF.28.0490 PROPIONYL-COA C[…] CHAIN, PUTATIVE
  fold change vs vehicle control: 1.09
Protein LMJF.28.0710 HY[…], CONSERVED (SNARE associated Golgi protein, putative)
  fold change: 0.8
Protein LMJF.28.0930 HY[…], CONSERVED
  fold change vs vehicle control: 0.96
Protein LMJF.28.0960 40S RIBOSOMAL PROTEIN S14
  fold change vs vehicle control: 1.01
Protein LMJF.28.1530 ATP DEPENDENT DEAD-BOX HELICASE, PUTATIVE
  fold change vs vehicle control: 0.81
Protein LMJF.28.1730, […]-ATP-ASE SUBUNIT 2, PUTATIVE
  fold change relative to vehicle control: 1.01
Protein LMJF.28.2430 VACUOLAR ATP SYNTHASE SUBUNIT B, PUTATIVE
  fold change vs vehicle control: 0.95
Protein LMJF.28.2770, HEAT-SHOCK PROTEIN HSP70, PUTATIVE
  fold change relative to vehicle control: 1.13
Protein LMJF.28.2910 GLUTAMATE DEHYDROGENASE, PUTATIVE
  fold change: 0.86
Protein LMJF.29.0120 […]-ATPASE SUBUNIT, PUTATIVE
  fold change vs vehicle control: 0.92
Protein LMJF.29.0620 ATP-BINDING CASSETTE PROTEIN SUBFAMILY A, MEMBER 10, PUTATIVE
  fold change: 0.73
Protein LMJF.29.0850, HIGH MOBILITY GROUP PROTEIN HOMOLOG TDP-1, PUTATIVE
  fold change relative to vehicle control: 1.14
Protein LMJF.29.0940 HY[…], CONSERVED
  fold change vs vehicle control: 1
Protein LMJF.29.1160 TRYPAREDOXIN
  fold change vs vehicle control: 0.85
Protein LMJF.29.1240 HY[…], UNKNOWN FUNCTION
  fold change vs vehicle control: 0.95
Protein LMJF.29.1270 100 kDa heat shock protein (Hsp100)
  fold change vs vehicle control: 0.95
Protein LMJF.29.1310 CARNITINE/CHOLINE ACETYLTRANSFERASE, PUTATIVE
  fold change vs vehicle control: 0.97
Protein LMJF.29.1760, PAR[…] PROTEIN 1D, PUTATIVE
  fold change relative to vehicle control: 1.4
Protein LMJF.29.1780 D[…] PROTEIN, PUTATIVE
  fold change vs vehicle control: 0.9
Protein LMJF.29.2200 GTP-BINDING PROTEIN, PUTATIVE (dynamin-1-like protein)
  fold change: 0.98
Protein LMJF.29.2310 ENOYL-COA HYDRATASE/ISOMERASE-LIKE PROTEIN
  fold change: 0.93
Protein LMJF.29.2360 ASPARTYL AMINOPEPTIDASE, PUTATIVE,METALLO-PEPTIDASE, CLAN MH, FAMILY M20
  fold change vs vehicle control: 0.84
Protein LMJF.29.2860 40S RIBOSOMAL PROTEIN S19-LIKE PROTEIN
  fold change: 1.11
Protein LMJF.30.0580 HY[…], CONSERVED (AMP-binding enzyme, putative)
  fold change: 0.77
Protein LMJF.30.0850 SURFACE PROTEIN AMASTIN, PUTATIVE
  fold change: 0.89
Protein LMJF.30.1250 PYRIDOXAL KINASE, PUTATIVE
  fold change vs vehicle control: 1.01
Protein LMJF.30.3090, HY[…], CONSERVED (RNA-binding protein 42, putative)
  fold change relative to vehicle control: 1.14
Protein LMJF.30.3240 GLUTAMYL-TRNA SYNTHETASE, PUTATIVE
  fold change vs vehicle control: 1.09
Protein LMJF.30.3430 HY[…], CONSERVED (protein mkt1, putative)
  fold change: 0.97
Protein LMJF.30.3520 S-ADENOSYL[…]
  fold change: 0.85
Protein LMJF.30.3570 ZINC FINGER-DOMAIN PROTEIN, PUTATIVE
  fold change: 0.7
Protein LMJF.31.0080, HY[…], CONSERVED
  fold change relative to vehicle control: 1.19
Protein LMJF.31.0340 AMINO ACID PERMEASE, PUTATIVE
  fold change vs vehicle control: 0.93
Protein LMJF.31.1130 N-ACYL-L-AMINO ACID AMIDOHYDROLASE, PUTATIVE
  fold change: 0.96
Protein LMJF.31.1640 THIOLASE PROTEIN-LIKE PROTEIN
  fold change vs vehicle control: 0.95
Protein LMJF.31.2150, PROSTAGLANDIN F2-ALPHA SYNTHASE/D-ARABINOSE DEHYDROGENASE
  fold change relative to vehicle control: 0.94
Protein LMJF.31.2250 3,2-TRANS-ENOYL-COA ISOMERASE, MIT[…], PUTATIVE
  fold change vs vehicle control: 0.92
Protein LMJF.32.0750 RNA BINDING PROTEIN, PUTATIVE
  fold change vs vehicle control: 1.04
Protein LMJF.32.1060 DYNEIN, PUTATIVE
  fold change vs vehicle control: 0.94
Protein LMJF.32.1820, IRON SUPEROXIDE DISMUTASE, PUTATIVE
  fold change relative to vehicle control: 1.02
Protein LMJF.32.2320, C-14 STEROL REDUCTASE, PUTATIVE
  fold change relative to vehicle control: 1.11
Protein LMJF.32.3870 MYOSIN XXI
  fold change vs vehicle control: 0.93
Protein LMJF.33.0240, THIOL-DEPENDENT REDUCTASE 1
  fold change relative to vehicle control: 1.12
Protein LMJF.33.0280 HY[…], CONSERVED
  fold change: 1.02
Protein LMJF.33.0890, HY[…], CONSERVED
  fold change relative to vehicle control: 0.88
Protein LMJF.33.1070 HY[…], UNKNOWN FUNCTION
  fold change vs vehicle control: 1.02
Protein LMJF.33.1330 CYSTEINE CONJUGATE BETA-LYASE, AMINOTRANSFERASE- LIKE PROTEIN
  fold change vs vehicle control: 0.74
Protein LMJF.33.1590 HY[…], CONSERVED (3-ketoacyl-CoA reductase, putative)
  fold change: 1.36
Protein LMJF.33.1860, ATP-BINDING CASSETTE PROTEIN SUBFAMILY D, MEMBER 3, PUTATIVE
  fold change relative to vehicle control: 1.27
Protein LMJF.33.2340, SUCCINYL-COA:3-KETOACID-COENZYME A TRANSFERASE, MIT[…], PUTATIVE
  fold change relative to vehicle control: 1.06
Protein LMJF.33.2440, HY[…], CONSERVED
  fold change relative to vehicle control: 1.15
Protein LMJF.33.2540, CARBOXYPEPTIDASE, PUTATIVE,METALLO-PEPTIDASE, CLAN MA(E), FAMILY M32
  fold change relative to vehicle control: 1.24
Protein LMJF.33.3150 40S RIBOSOMAL PROTEIN S13, PUTATIVE
  fold change: 1.05
Protein LMJF.34.0140, MALATE DEHYDROGENASE
  fold change relative to vehicle control: 1.48
Protein LMJF.34.0440 RIBOSOMAL PROTEIN S25
  fold change vs vehicle control: 1.12
Protein LMJF.34.2580, HY[…], CONSERVED (ALBA-domain protein 3)
  fold change relative to vehicle control: 1.03
Protein LMJF.34.3250, PUTATIVE PYRUVATE/INDOLE-PYRUVATE CARBOXYLASE, PUTATIVE
  fold change relative to vehicle control: 1.01
Protein LMJF.34.4370 20S […] 7 SUBUNIT, (PUTATIVE)
  fold change: 0.96
Protein LMJF.34.4620 HY[…], CONSERVED
  fold change vs vehicle control: 0.95
Protein LMJF.35.0070 PROHIBITIN, PUTATIVE
  fold change: 0.97
Protein LMJF.35.0360 ENOYL-COA HYDRATASE/ISOMERASE FAMILY PROTEIN, CONSERVED
  fold change vs vehicle control: 1.16
Protein LMJF.35.0370 ATP-DEPENDENT DEAD-BOX RNA HELICASE, PUTATIVE
  fold change: 0.95
Protein LMJF.35.0420 40S RIBOSOMAL PROTEIN S3A, PUTATIVE
  fold change: 1.12
Protein LMJF.35.1220, SHORT CHAIN DEHYDROGENASE, PUTATIVE
  fold change relative to vehicle control: 1.02
